Assay results taken from US20260125371A1, “METHOD FOR INHIBITING CLOSTRIDIOIDES DIFFICILE SPORE GERMINATION” (UNIVERSITY OF NOTRE DAME DU LAC, priority 2022, published 2026).
Values after ≈ are worked out from the molar mass of the structure shown. Where two headings read alike, the source gives them in different places. Blank lines part the entries; values can stand above or below the compound they belong to.

Columns and labels:
C. difficile ATCC 43255 = assay: Determination of minimal-inhibitory concentrations (microdilution), C. difficile ATCC 43255; assay type: cell-based, Clostridioides difficile; conditions: for MIC: Clostridioides difficile; for ATCC43255 MIC: C. difficile ATCC43255
S. aureus = assay: MIC against S. aureus strains; assay type: cell-based; conditions: S. aureus ATCC 29213, 24 h; for MIC: Staphylococcus aureus, ATCC29213, 24 h, read-out: MIC (μg/mL) 24 h
[1] = test system: C. difficile strain ATCC43255 spores; assay: Spore germination inhibition assay; assay type: cell-based, Clostridioides difficile; conditions: compound 45 μM, germinant 6 mM taurocholate and 12 mM glycine, OD600 over 60 min, duplicate; for inhibition at 45 µM: Clostridioides difficile, 1 h
[2] = C. difficile ATCC 43255, 48-h incubation
[3] = ATCC43255, 24 h, C. difficile ATCC 43255, 24 h, read-out: MIC (μg/mL) 24 h
[4] = ATCC43255, 48 h, C. difficile ATCC 43255, 48-h incubation, read-out: MIC (μg/mL) 48 h
[5] = ATCC43255, C. difficile ATCC43255, read-out: ATCC43255 MIC

Structure (SMILES): FC(F)(F)c1ccc(Oc2ccc(-c3noc(-c4n[nH]cc4NC4CCCC4)n3)cc2)cc1 [Compound 38]
MIC (μg/mL) 48 h (C. difficile ATCC 43255; [2]): >128 µg/mL
MIC (μg/mL) 24 h (C. difficile ATCC 43255; C. difficile ATCC 43255, 24 h): >128 µg/mL
MIC (μg/mL) 24 h (S. aureus): >128 µg/mL

Structure (SMILES): FC(F)(F)c1ccc(Oc2ccc(-c3noc(-c4n[nH]cc4NC4CCCCC4)n3)cc2)cc1 [Compound 39]
MIC (μg/mL) 48 h (C. difficile ATCC 43255; [2]): >128 µg/mL
MIC (μg/mL) 24 h (C. difficile ATCC 43255; C. difficile ATCC 43255, 24 h): >128 µg/mL
MIC (μg/mL) 24 h (S. aureus): >128 µg/mL

Structure (SMILES): CCCCNc1c[nH]nc1-c1nc(-c2ccc(Oc3ccc(C(F)(F)F)cc3)cc2)no1 [Compound 40]
MIC (μg/mL) 48 h (C. difficile ATCC 43255; [2]): >128 µg/mL
MIC (μg/mL) 24 h (C. difficile ATCC 43255; C. difficile ATCC 43255, 24 h): >128 µg/mL
MIC (μg/mL) 24 h (S. aureus): >128 µg/mL

Structure (SMILES): CCC(C)Nc1c[nH]nc1-c1nc(-c2ccc(Oc3ccc(C(F)(F)F)cc3)cc2)no1 (stereo not shown) [Compound 41]
MIC (μg/mL) 48 h (C. difficile ATCC 43255; [2]): >128 µg/mL
MIC (μg/mL) 24 h (C. difficile ATCC 43255; C. difficile ATCC 43255, 24 h): >128 µg/mL
MIC (μg/mL) 24 h (S. aureus): >128 µg/mL

Structure (SMILES): CC(C)(C)OC(=O)N1CCC(Nc2c[nH]nc2-c2nc(-c3ccc(Oc4ccc(C(F)(F)F)cc4)cc3)no2)CC1 [Compound 42]
MIC (μg/mL) 48 h (C. difficile ATCC 43255; [2]): >128 µg/mL
MIC (μg/mL) 24 h (C. difficile ATCC 43255; C. difficile ATCC 43255, 24 h): >128 µg/mL
MIC (μg/mL) 24 h (S. aureus): >128 µg/mL

Structure (SMILES): O=C(Nc1c[nH]nc1-c1nc(-c2ccc(Oc3ccc(C(F)(F)F)cc3)cc2)no1)c1ccccn1 [Compound 43]
MIC (μg/mL) 48 h (C. difficile ATCC 43255; [2]): >128 µg/mL
MIC (μg/mL) 24 h (C. difficile ATCC 43255; C. difficile ATCC 43255, 24 h): >128 µg/mL
MIC (μg/mL) 24 h (S. aureus): >128 µg/mL

Structure (SMILES): O=C(Nc1c[nH]nc1-c1nc(-c2ccc(Oc3ccc(C(F)(F)F)cc3)cc2)no1)c1ccccc1 [Compound 44]
MIC (μg/mL) 48 h (C. difficile ATCC 43255; [2]): >128 µg/mL
MIC (μg/mL) 24 h (C. difficile ATCC 43255; C. difficile ATCC 43255, 24 h): >128 µg/mL
MIC (μg/mL) 24 h (S. aureus): >128 µg/mL

Structure (SMILES): FC(F)(F)c1ccc(Oc2ccc(-c3noc(-c4n[nH]c5ccccc45)n3)cc2)cc1 [Compound 45]
MIC (μg/mL) 48 h (C. difficile ATCC 43255; [2]): >128 µg/mL
MIC (μg/mL) 24 h (C. difficile ATCC 43255; C. difficile ATCC 43255, 24 h): >128 µg/mL
MIC (μg/mL) 24 h (S. aureus): >128 µg/mL

Structure (SMILES): FC(F)(F)c1ccc(Oc2ccc(-c3noc(-c4c[nH]c5ncccc45)n3)cc2)cc1 [Compound 46]
MIC (μg/mL) 48 h (C. difficile ATCC 43255; [2]): >128 µg/mL
MIC (μg/mL) 24 h (C. difficile ATCC 43255; C. difficile ATCC 43255, 24 h): >128 µg/mL
MIC (μg/mL) 24 h (S. aureus): >128 µg/mL

Structure (SMILES): O=[N+]([O-])c1c[nH]c(-c2nc(-c3ccc(Oc4ccc(C(F)(F)F)cc4)cc3)no2)c1 [Compound 47]
MIC (μg/mL) 48 h (C. difficile ATCC 43255; [2]): 8 µg/mL (≈ 19.2 µM)
MIC (μg/mL) 24 h (C. difficile ATCC 43255; C. difficile ATCC 43255, 24 h): 8 µg/mL (≈ 19.2 µM)
MIC (μg/mL) 24 h (S. aureus): 8 µg/mL (≈ 19.2 µM)

MIC (μg/mL) 48 h (C. difficile ATCC 43255; [2]): >128 µg/mL
MIC (C. difficile ATCC 43255; [3]): > 128 µg/mL
MIC (S. aureus): > 128 µg/mL
Structure (SMILES): O=C(O)c1ccc(-c2nc(-c3ccc(OC4CCCC4)cc3)no2)cc1 [Compound 49, 4-(3-(4-(Cyclopentyloxy)phenyl)-1,2,4-oxadiazol-5-yl)benzoic acid]

MIC (μg/mL) 48 h (C. difficile ATCC 43255; [2]): >128 µg/mL
MIC (C. difficile ATCC 43255; [3]): 2 µg/mL (≈ 6.22 µM)
MIC (S. aureus): 4 µg/mL (≈ 12.4 µM)
Structure (SMILES): Nc1ccc(-c2nc(-c3ccc(OC4CCCC4)cc3)no2)cc1 [Compound 51, 4-(3-(4-(Cyclopentyloxy)phenyl)-1,2,4-oxadiazol-5-yl) aniline]

MIC (μg/mL) 48 h (C. difficile ATCC 43255; [2]): >128 µg/mL
MIC (C. difficile ATCC 43255; [3]): > 128 µg/mL
MIC (S. aureus): > 128 µg/mL
Structure (SMILES): CS(=O)(=O)Nc1ccc(-c2nc(-c3ccc(OC4CCCC4)cc3)no2)cc1 [Compound 52, N-(4-(3-(4-(Cyclopentyloxy)phenyl)-1,2,4-oxadiazol-5-yl)phenyl) methanesulfonamide]

MIC (C. difficile ATCC 43255; [3]): 4 µg/mL (≈ 11.9 µM)
MIC (C. difficile ATCC 43255; [4]): 8 µg/mL (≈ 23.9 µM)
MIC (S. aureus): 2 µg/mL (≈ 5.96 µM)
Structure (SMILES): NCc1ccc(-c2nc(-c3ccc(OC4CCCC4)cc3)no2)cc1 [Compound 53, (4-(3-(4-(Cyclopentyloxy)phenyl)-1,2,4-oxadiazol-5-yl)phenyl) methanamine]

MIC (C. difficile ATCC 43255; [3]): 128 µg/mL
MIC (C. difficile ATCC 43255; [4]): 128 µg/mL
MIC (S. aureus): > 128 µg/mL
Structure (SMILES): Cl.NCCCCc1nc(-c2ccc(OC3CCCC3)cc2)no1 [Compound 67, 4-(3-(4-(Cyclopentyloxy)phenyl)-1,2,4-oxadiazol-5-yl)butan-1-amine hydrochloride salt]

MIC (C. difficile ATCC 43255; [3]): > 128 µg/mL
MIC (C. difficile ATCC 43255; [4]): > 128 µg/mL
MIC (S. aureus): > 128 µg/mL
Structure (SMILES): CCOc1ccc(-c2noc(-c3ccc(O)cc3)n2)cc1 [Compound 86, 4-(3-(4-Ethoxyphenyl)-1,2,4-oxadiazol-5-yl)phenol]

MIC (C. difficile ATCC 43255; [3]): 4 µg/mL (≈ 13.5 µM)
MIC (C. difficile ATCC 43255; [4]): > 128 µg/mL
MIC (S. aureus): 128 µg/mL (≈ 432 µM)
Structure (SMILES): CCCOc1ccc(-c2noc(-c3ccc(O)cc3)n2)cc1 [Compound 87, 4-(3-(4-Propoxyphenyl)-1,2,4-oxadiazol-5-yl)phenol]

Structure (SMILES): CCCCOc1ccc(-c2noc(-c3ccc(O)cc3)n2)cc1 [Compound 90, 4-(3-(4-Butoxyphenyl)-1,2,4-oxadiazol-5-yl)phenol]
MIC (C. difficile ATCC 43255; [3]): > 128 µg/mL
MIC (C. difficile ATCC 43255; [4]): > 128 µg/mL
MIC (S. aureus): > 128 µg/mL

MIC (C. difficile ATCC 43255; [3]): > 128 µg/mL
MIC (C. difficile ATCC 43255; [4]): > 128 µg/mL
MIC (S. aureus): > 128 µg/mL
Structure (SMILES): Oc1ccc(-c2nc(-c3ccc(OC4CC4)cc3)no2)cc1 [Compound 92, 4-(3-(4-Cyclopropoxyphenyl)-1,2,4-oxadiazol-5-yl)phenol]

Structure (SMILES): Oc1ccc(-c2nc(-c3ccc(OC4CCC4)cc3)no2)cc1 [Compound 93, 4-(3-(4-Cyclobutoxyphenyl)-1,2,4-oxadiazol-5-yl)phenol]
MIC (C. difficile ATCC 43255; [3]): > 128 µg/mL
MIC (C. difficile ATCC 43255; [4]): > 128 µg/mL
MIC (S. aureus): > 128 µg/mL

MIC (C. difficile ATCC 43255; [3]): 2 µg/mL (≈ 5.3 µM)
MIC (C. difficile ATCC 43255; [4]): 64 µg/mL (≈ 170 µM)
MIC (S. aureus): 32 µg/mL (≈ 84.8 µM)
Structure (SMILES): COc1ccc2oc3ccc(-c4noc(-c5n[nH]cc5[N+](=O)[O-])n4)cc3c2c1 [Compound 119, 3-(8-Methoxydibenzo[b,d]furan-2-yl)-5-(4-nitro-1H-pyrazol-3-yl)-1,2,4-oxadiazole]

MIC (C. difficile ATCC 43255; [3]): > 128 µg/mL
MIC (C. difficile ATCC 43255; [4]): > 128 µg/mL
MIC (S. aureus): 64 µg/mL (≈ 212 µM)
Structure (SMILES): c1cc2cc(-c3nc(-c4ccc5occc5c4)no3)ccc2[nH]1 [Compound 120, 3-(Benzofuran-5-yl)-5-(1H-indol-5-yl)-1,2,4-oxadiazole]

MIC (μg/mL) 48 h (C. difficile ATCC 43255; [2]): >128 µg/mL
MIC (C. difficile ATCC 43255; [3]): > 128 µg/mL
MIC (S. aureus): > 128 µg/mL
Structure (SMILES): Oc1ccc(-c2cc(-c3ccc(Oc4ccccc4)cc3)no2)cc1 [Compound 135, 4-(3-(4-Phenoxyphenyl)isoxazol-5-yl)phenol]

MIC (μg/mL) 48 h (C. difficile ATCC 43255; [2]): >128 µg/mL
MIC (C. difficile ATCC 43255; [3]): > 128 µg/mL
MIC (S. aureus): > 128 µg/mL
Structure (SMILES): Oc1ccc(-n2cc(-c3ccc(Oc4ccccc4)cc3)nn2)cc1 [Compound 136, 4-(4-(4-Phenoxyphenyl)-1H-1,2,3-triazol-1-yl)phenol]

MIC (C. difficile ATCC 43255; [5]): > 128 µg/mL
Structure (SMILES): O=C1CC(c2nc(-c3ccc(Oc4ccc(C(F)(F)F)cc4)cc3)no2)CN1 (stereo not shown) [DR-03-138]
inhibition at 45 µM [1]: 30 ± 14%

Structure (SMILES): O=[N+]([O-])c1c[nH]nc1-c1nc(-c2ccc(Oc3ccc(C(F)(F)F)cc3)cc2)no1 [DR-04-089]
% Spore Germination Inhibition at 45 μM [1]: 20 ± 3%
ATCC43255 MIC (C. difficile ATCC 43255): >128 µg/mL

MIC (C. difficile ATCC 43255; [5]): > 128 µg/mL
Structure (SMILES): NCc1ccc(-c2nc(-c3ccc(Oc4ccc(F)cc4)cc3)no2)cc1 [DR-05-250]
inhibition at 45 µM [1]: 73 ± 5%

MIC (C. difficile ATCC 43255; [5]): > 128 µg/mL
Structure (SMILES): NCCCCc1nc(-c2ccc(Oc3ccc(C(F)(F)F)cc3)cc2)no1 [DR-06-025]
inhibition at 45 µM [1]: 44 ± 2%

ATCC43255 MIC (C. difficile ATCC 43255): >128 µg/mL
Structure (SMILES): Oc1ccc(-c2nc(-c3ccc(Oc4ccc(I)cc4)cc3)no2)cc1 [MAB-01-250A]
% Spore Germination Inhibition at 45 μM [1]: 62 ± 2%

MIC (C. difficile ATCC 43255; [5]): > 128 µg/mL
Structure (SMILES): Nc1cc(Oc2ccccc2)cnc1-c1noc(-c2ccc(O)cc2)n1 [MAB-02-27A]
inhibition at 45 µM [1]: 17 ± 1%

MIC (C. difficile ATCC 43255; [5]): > 128 µg/mL
Structure (SMILES): O=[N+]([O-])c1ccccc1Oc1ccc(-c2noc(-c3ccc(O)cc3)n2)nc1 [MAB-02-29A]
inhibition at 45 µM [1]: 26 ± 1%

MIC (C. difficile ATCC 43255; [5]): > 128 µg/mL
Structure (SMILES): Oc1ccc(-c2nc(-c3ccc(Oc4ccccc4CBr)cc3)no2)cc1 [MAB-02-59A]
inhibition at 45 µM [1]: 30 ± 3%

MIC (C. difficile ATCC 43255; [5]): 4 µg/mL (≈ 11.9 µM)
Structure (SMILES): NCc1ccc(-c2nc(-c3ccc(OC4CCCC4)cc3)no2)cc1 [YQ-4-81]
inhibition at 45 µM [1]: 41 ± 1%

Structure (SMILES): NCc1ccc(-c2nc(-c3ccc(Oc4ccc(C(F)(F)F)cc4)cn3)no2)cc1 [YQ-4-107]
inhibition at 45 µM [1]: 24 ± 3%
